Where two headings read alike, the source gives them in different places.
Assays:
Assay in all cases: Bystander BRET endosomal trafficking (β-arrestin 1-Nluc, FYVE-mVenus), HEK293 (SSTR2 mutants);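 also: Read-out is the BRET ratio between Nluc-fused β-arrestin 1 and the early endosome marker FYVE-mVenus, measured after ligand addition with coelenterazine h as substrate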;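 as to Span: percent of maximal wild-type response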;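 as to Top: percent of maximal wild-type response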
SSTR2 mutants [1] = test system: SSTR2 mutants
Experimental: (§1) Wild-type or mutant SSTR2, β-arrestin 1-Nluc and FYVE-mVenus were co-transfected in HEK293 cells at a ratio of 1:0.5:4 on six-well plates. The next day, the transfected cells were plated on white 96-well and incubated overnight, and then cells were incubated with 90 µL HBSS containing 20 mM HEPES and coelenterazine h (5 µM) at room temperature for 40 min. After incubation, ligand was added and the signal was measured using the Synergy H1 microplate reader (BioTek) to determine a BRET ratio.

SSTR2 mutants [2] = target: SSTR2 mutants (Homo sapiens, UniProt P30874, F265A)
Experimental: as §1

SSTR2 mutants [3] = target: SSTR2 mutants (Homo sapiens, UniProt P30874, Y312A)
Experimental: as §1

SSTR2 mutants [4] = target: SSTR2 mutants (Homo sapiens, UniProt P30874, K291A); settings: for Bottom: best-fit value
Experimental: as §1

SSTR2 mutants [5] = target: SSTR2 mutants (Homo sapiens, UniProt P30874, I284A); settings: for Bottom: best-fit value
Experimental: as §1

SSTR2 mutants [6] = target: SSTR2 mutants (Homo sapiens, UniProt P30874, R140A)
Experimental: as §1

[7] = best-fit value, F294A-2 (run 2)
[8] = best-fit value, F294A-3 (run 3)
[9] = best-fit value, I284A-1 (run 1)
[10] = best-fit value, I284A-2 (run 2)
[11] = best-fit value, I284A-3 (run 3)
[12] = best-fit value, K291A-1 (run 1)
[13] = best-fit value, K291A-2 (run 2)
[14] = best-fit value, K291A-3 (run 3)
[15] = best-fit value, N276A-1 (run 1)
[16] = best-fit value, N276A-2 (run 2)
[17] = best-fit value, N276A-3 (run 3)

SSTR2 mutants (Homo sapiens, UniProt P30874, R140A), sequence (P30874 whole entry R140A): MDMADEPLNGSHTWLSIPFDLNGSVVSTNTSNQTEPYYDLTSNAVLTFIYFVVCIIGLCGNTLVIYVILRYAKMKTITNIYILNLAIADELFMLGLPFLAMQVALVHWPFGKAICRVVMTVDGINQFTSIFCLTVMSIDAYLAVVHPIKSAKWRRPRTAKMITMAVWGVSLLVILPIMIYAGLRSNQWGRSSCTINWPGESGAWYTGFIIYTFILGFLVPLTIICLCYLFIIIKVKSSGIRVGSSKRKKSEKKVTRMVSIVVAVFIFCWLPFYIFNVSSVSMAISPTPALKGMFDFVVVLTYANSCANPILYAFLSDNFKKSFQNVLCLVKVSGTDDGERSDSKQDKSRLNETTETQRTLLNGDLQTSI
SSTR2 mutants (Homo sapiens, UniProt P30874, K291A), sequence (P30874 whole entry K291A): as the sequence (P30874 whole entry R140A) above, with A140R, K291A counted along it
SSTR2 mutants (Homo sapiens, UniProt P30874, F265A), sequence (P30874 whole entry F265A): as the sequence (P30874 whole entry R140A) above, with A140R, F265A counted along it
SSTR2 mutants (Homo sapiens, UniProt P30874, Y312A), sequence (P30874 whole entry Y312A): as the sequence (P30874 whole entry R140A) above, with A140R, Y312A counted along it
SSTR2 mutants (Homo sapiens, UniProt P30874, I284A), sequence (P30874 whole entry I284A): as the sequence (P30874 whole entry R140A) above, with A140R, I284A counted along it

N#Cc1cccc(-c2ccc3ncc(-c4cc(F)cc(F)c4)c(N4CCC(N)CC4)c3c2)c1O [paltusotine]
LogEC50 (SSTR2 mutants [1]; [7]): -5.892
Span (SSTR2 mutants [1]; [7]): 84.17
Top (SSTR2 mutants [1]; [7]): 81.83
EC50 (SSTR2 mutants [1]; [8]): 1.57 µM
LogEC50 (SSTR2 mutants [1]; [8]): -5.803
Span (SSTR2 mutants [1]; [8]): 87.18
Top (SSTR2 mutants [1]; [8]): 86.4
EC50 (SSTR2 mutants [1]; [9]): 0.0712 µM
LogEC50 (SSTR2 mutants [1]; [9]): -7.148
Span (SSTR2 mutants [1]; [9]): 95.18
Top (SSTR2 mutants [1]; [9]): 94.55
EC50 (SSTR2 mutants [1]; [10]): 0.0841 µM
LogEC50 (SSTR2 mutants [1]; [10]): -7.075
Span (SSTR2 mutants [1]; [10]): 103.8
Top (SSTR2 mutants [1]; [10]): 105.1
EC50 (SSTR2 mutants [1]; [11]): 0.0826 µM
LogEC50 (SSTR2 mutants [1]; [11]): -7.083
Span (SSTR2 mutants [1]; [11]): 102.7
Top (SSTR2 mutants [1]; [11]): 102.8
EC50 (SSTR2 mutants [1]; [12]): 0.0357 µM
LogEC50 (SSTR2 mutants [1]; [12]): -7.448
Span (SSTR2 mutants [1]; [12]): 68.73
Top (SSTR2 mutants [1]; [12]): 69.72
EC50 (SSTR2 mutants [1]; [13]): 0.0839 µM
LogEC50 (SSTR2 mutants [1]; [13]): -7.076
Span (SSTR2 mutants [1]; [13]): 87.08
Top (SSTR2 mutants [1]; [13]): 83.73
EC50 (SSTR2 mutants [1]; [14]): 0.0302 µM
LogEC50 (SSTR2 mutants [1]; [14]): -7.52
Span (SSTR2 mutants [1]; [14]): 76.1
Top (SSTR2 mutants [1]; [14]): 71.42
EC50 (SSTR2 mutants [1]; [15]): 0.14 µM
LogEC50 (SSTR2 mutants [1]; [15]): -6.855
Span (SSTR2 mutants [1]; [15]): 79.71
Top (SSTR2 mutants [1]; [15]): 79.77
EC50 (SSTR2 mutants [1]; [16]): 0.11 µM
LogEC50 (SSTR2 mutants [1]; [16]): -6.96
Span (SSTR2 mutants [1]; [16]): 78.62
Top (SSTR2 mutants [1]; [16]): 78.47
EC50 (SSTR2 mutants [1]; [17]): 0.1 µM
LogEC50 (SSTR2 mutants [1]; [17]): -7
Span (SSTR2 mutants [1]; [17]): 73.41
Top (SSTR2 mutants [1]; [17]): 70.97
EC50 (SSTR2 mutants [1]; read-out: EC50 (best-fit), I130A-1 (run 1)): ~7970 µM
EC50 (SSTR2 mutants [1]; read-out: EC50 (best-fit), I130A-2 (run 2)): 0.000139 µM
EC50 (SSTR2 mutants [1]; read-out: EC50 (best-fit), I130A-3 (run 3)): 0.00034 µM
EC50 (SSTR2 mutants [1]; read-out: EC50 (best-fit), P220A-1 (run 1)): 0.184 µM
EC50 (SSTR2 mutants [1]; read-out: EC50 (best-fit), P220A-2 (run 2)): ~7280 µM
EC50 (SSTR2 mutants [1]; read-out: EC50 (best-fit), P220A-3 (run 3)): 0.831 µM
EC50 (SSTR2 mutants [1]; read-out: EC50 (best-fit), R140A-1 (run 1)): 0.00467 µM
EC50 (SSTR2 mutants [1]; read-out: EC50 (best-fit), R140A-2 (run 2)): 0.00664 µM
EC50 (SSTR2 mutants [1]; read-out: EC50 (best-fit), R140A-3 (run 3)): 0.00659 µM
EC50 (SSTR2 mutants [1]; read-out: EC50 (best-fit), W269A-1 (run 1)): 0.13 µM
EC50 (SSTR2 mutants [1]; read-out: EC50 (best-fit), W269A-2 (run 2)): 0.476 µM
EC50 (SSTR2 mutants [1]; read-out: EC50 (best-fit), W269A-3 (run 3)): 0.155 µM
EC50 (SSTR2 mutants [1]; read-out: EC50 (best-fit), Y312A-1 (run 1)): 0.00818 µM
EC50 (SSTR2 mutants [1]; read-out: EC50 (best-fit), Y312A-2 (run 2)): 0.0115 µM
EC50 (SSTR2 mutants [1]; read-out: EC50 (best-fit), Y312A-3 (run 3)): 0.00641 µM
Bottom (best-fit) (SSTR2 mutants [2]; F265A-1 (run 1)): -0.01693
Bottom (best-fit) (SSTR2 mutants [2]; F265A-2 (run 2)): -7.978
Bottom (best-fit) (SSTR2 mutants [2]; F265A-3 (run 3)): -0.1955
Bottom (best-fit) (SSTR2 mutants [3]; Y312A-1 (run 1)): -0.8168
Bottom (best-fit) (SSTR2 mutants [3]; Y312A-2 (run 2)): -2.056
Bottom (best-fit) (SSTR2 mutants [3]; Y312A-3 (run 3)): 0.2687
EC50 (SSTR2 mutants [4]): 0.0894 ± 0.00133 µM
Emax (SSTR2 mutants [4]; HEK293): 86.8 ± 5.01%
Bottom (SSTR2 mutants [4]; K291A-1 (run 1)): 0.9895
Bottom (SSTR2 mutants [4]; K291A-2 (run 2)): -3.341
Bottom (SSTR2 mutants [4]; K291A-3 (run 3)): -4.686
EC50 (SSTR2 mutants [5]): 0.0898 ± 0.00128 µM
Emax (SSTR2 mutants [5]; HEK293): 106 ± 6.25%
Bottom (SSTR2 mutants [5]; I284A-1 (run 1)): -0.6254
Bottom (SSTR2 mutants [5]; I284A-2 (run 2)): 1.24
Bottom (SSTR2 mutants [5]; I284A-3 (run 3)): 0.1294
Bottom (best-fit) (SSTR2 mutants [6]; R140A-1 (run 1)): -0.6263
Bottom (best-fit) (SSTR2 mutants [6]; R140A-2 (run 2)): -11.29
Bottom (best-fit) (SSTR2 mutants [6]; R140A-3 (run 3)): 0.1772
